Measurements: PubChem BioAssay (NCI)
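The compound was tested at five concentrations on cells cultured in 96-well plates, with a 48-hour exposure period. TGI: concentration producing complete growth inhibition.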

How the values were obtained:
Assay in all cases: NCI anticancer screen, dose series, 48 h
786-0 renal = test system: 786-0 renal
A498 renal = test system: A498 renal
A549 NSCLC = test system: A549 NSCLC
ACHN renal = test system: ACHN renal
BT-549 breast = test system: BT-549 breast
CAKI-1 renal = test system: CAKI-1 renal
CCRF-CEM leukemia = test system: CCRF-CEM leukemia
COLO 205 colon = test system: COLO 205 colon
DU-145 prostate = test system: DU-145 prostate
EKVX NSCLC = test system: EKVX NSCLC
HCT-116 colon = test system: HCT-116 colon
HL-60(TB) leukemia = test system: HL-60(TB) leukemia
HOP-62 NSCLC = test system: HOP-62 NSCLC
HOP-92 NSCLC = test system: HOP-92 NSCLC
HS 578T breast = test system: HS 578T breast
HT29 colon = test system: HT29 colon
IGROV1 ovarian = test system: IGROV1 ovarian
K-562 leukemia = test system: K-562 leukemia
KM12 colon = test system: KM12 colon
MALME-3M melanoma = test system: MALME-3M melanoma
MCF7 breast = test system: MCF7 breast
MDA-MB-231 breast = test system: MDA-MB-231 breast
MDA-MB-435 = test system: MDA-MB-435
MDA-N = test system: MDA-N
MOLT-4 leukemia = test system: MOLT-4 leukemia
NCI-H226 lung = test system: NCI-H226 lung
NCI-H23 lung = test system: NCI-H23 lung
NCI-H522 lung = test system: NCI-H522 lung
NCI/ADR-RES ovarian = test system: NCI/ADR-RES ovarian
OVCAR-3 ovarian = test system: OVCAR-3 ovarian
OVCAR-4 ovarian = test system: OVCAR-4 ovarian
OVCAR-8 ovarian = test system: OVCAR-8 ovarian
SF-268 CNS = test system: SF-268 CNS
SF-295 CNS = test system: SF-295 CNS
SF-539 CNS = test system: SF-539 CNS
SK-MEL-2 melanoma = test system: SK-MEL-2 melanoma
SK-MEL-28 melanoma = test system: SK-MEL-28 melanoma
SK-MEL-5 melanoma = test system: SK-MEL-5 melanoma
SK-OV-3 ovarian = test system: SK-OV-3 ovarian
SN12C renal = test system: SN12C renal
SNB-19 CNS = test system: SNB-19 CNS
SR leukemia = test system: SR leukemia
SW-620 colon = test system: SW-620 colon
T-47D breast = test system: T-47D breast
TK-10 renal = test system: TK-10 renal
U251 CNS = test system: U251 CNS
UACC-257 melanoma = test system: UACC-257 melanoma
UACC-62 melanoma = test system: UACC-62 melanoma
UO-31 renal = test system: UO-31 renal
HCC-2998 colon = test system: HCC-2998 colon
HCT-15 colon = test system: HCT-15 colon
LOX IMVI melanoma = test system: LOX IMVI melanoma
M14 melanoma = test system: M14 melanoma
NCI-H460 lung = test system: NCI-H460 lung
OVCAR-5 ovarian = test system: OVCAR-5 ovarian
PC-3 prostate = test system: PC-3 prostate
RPMI-8226 leukemia = test system: RPMI-8226 leukemia
SNB-75 CNS = test system: SNB-75 CNS

CCc1n[nH]c(=O)n1O
TGI (786-0 renal): > 100 µM
TGI (A498 renal): > 100 µM
TGI (A549 NSCLC): > 100 µM
TGI (ACHN renal): > 100 µM
TGI (BT-549 breast): > 100 µM
TGI (CAKI-1 renal): > 100 µM
TGI (CCRF-CEM leukemia): > 100 µM
TGI (COLO 205 colon): > 100 µM
TGI (DU-145 prostate): > 100 µM
TGI (EKVX NSCLC): > 100 µM
TGI (HCT-116 colon): > 100 µM
TGI (HL-60(TB) leukemia): > 100 µM
TGI (HOP-62 NSCLC): > 100 µM
TGI (HOP-92 NSCLC): > 100 µM
TGI (HS 578T breast): > 100 µM
TGI (HT29 colon): > 100 µM
TGI (IGROV1 ovarian): > 100 µM
TGI (K-562 leukemia): > 100 µM
TGI (KM12 colon): > 100 µM
TGI (MALME-3M melanoma): > 100 µM
TGI (MCF7 breast): > 100 µM
TGI (MDA-MB-231 breast): > 100 µM
TGI (MDA-MB-435): > 100 µM
TGI (MDA-N): > 100 µM
TGI (MOLT-4 leukemia): > 100 µM
TGI (NCI-H226 lung): > 100 µM
TGI (NCI-H23 lung): > 100 µM
TGI (NCI-H522 lung): > 100 µM
TGI (NCI/ADR-RES ovarian): > 100 µM
TGI (OVCAR-3 ovarian): > 100 µM
TGI (OVCAR-4 ovarian): > 100 µM
TGI (OVCAR-8 ovarian): > 100 µM
TGI (SF-268 CNS): > 100 µM
TGI (SF-295 CNS): > 100 µM
TGI (SF-539 CNS): > 100 µM
TGI (SK-MEL-2 melanoma): > 100 µM
TGI (SK-MEL-28 melanoma): > 100 µM
TGI (SK-MEL-5 melanoma): > 100 µM
TGI (SK-OV-3 ovarian): > 100 µM
TGI (SN12C renal): > 100 µM
TGI (SNB-19 CNS): > 100 µM
TGI (SR leukemia): > 100 µM
TGI (SW-620 colon): > 100 µM
TGI (T-47D breast): > 100 µM
TGI (TK-10 renal): > 100 µM
TGI (U251 CNS): > 100 µM
TGI (UACC-257 melanoma): > 100 µM
TGI (UACC-62 melanoma): > 100 µM
TGI (UO-31 renal): > 100 µM

S=C(Nc1ccccc1)c1ccc(CN2CCCCC2)s1
TGI (786-0 renal): 34.2 µM
TGI (A498 renal): 37.4 µM
TGI (A549 NSCLC): 98.3 µM
TGI (ACHN renal): > 100 µM
TGI (BT-549 breast): 61.3 µM
TGI (CAKI-1 renal): 48.8 µM
TGI (CCRF-CEM leukemia): 41.3 µM
TGI (COLO 205 colon): 36.4 µM
TGI (DU-145 prostate): > 100 µM
TGI (EKVX NSCLC): > 100 µM
TGI (HCC-2998 colon): 37.9 µM
TGI (HCT-116 colon): 34.5 µM
TGI (HCT-15 colon): 36.2 µM
TGI (HL-60(TB) leukemia): 34.5 µM
TGI (HOP-62 NSCLC): 64.8 µM
TGI (HS 578T breast): 60.5 µM
TGI (HT29 colon): 24.1 µM
TGI (IGROV1 ovarian): 48.9 µM
TGI (K-562 leukemia): 43.6 µM
TGI (KM12 colon): 36.9 µM
TGI (LOX IMVI melanoma): 32.5 µM
TGI (M14 melanoma): 32.9 µM
TGI (MALME-3M melanoma): 46.6 µM
TGI (MCF7 breast): 35.7 µM
TGI (MDA-MB-435): 35.8 µM
TGI (MDA-N): 33.4 µM
TGI (MOLT-4 leukemia): 71.4 µM
TGI (NCI-H23 lung): 42.8 µM
TGI (NCI-H460 lung): 45.4 µM
TGI (NCI-H522 lung): 35.4 µM
TGI (NCI/ADR-RES ovarian): > 100 µM
TGI (OVCAR-3 ovarian): > 100 µM
TGI (OVCAR-4 ovarian): > 100 µM
TGI (OVCAR-5 ovarian): 35 µM
TGI (OVCAR-8 ovarian): 39.7 µM
TGI (PC-3 prostate): > 100 µM
TGI (RPMI-8226 leukemia): 70.4 µM
TGI (SF-268 CNS): > 100 µM
TGI (SF-295 CNS): 37.5 µM
TGI (SF-539 CNS): > 100 µM
TGI (SK-MEL-2 melanoma): 43.5 µM
TGI (SK-MEL-28 melanoma): 35.3 µM
TGI (SK-MEL-5 melanoma): 31.2 µM
TGI (SK-OV-3 ovarian): 36.9 µM
TGI (SNB-19 CNS): 44 µM
TGI (SR leukemia): 51.5 µM
TGI (SW-620 colon): 44.7 µM
TGI (T-47D breast): 85.3 µM
TGI (U251 CNS): 44.2 µM
TGI (UACC-257 melanoma): 46.2 µM
TGI (UACC-62 melanoma): 37.2 µM
TGI (UO-31 renal): 30.6 µM

CCC1OC(=O)CC(O)C(C)C(OC2OC(C)C(O)C(N(C)C)C2O)C(CC=O)CC(C)C(=O)/C=C/C2(C)OC2C1C (stereo unspecified)
TGI (786-0 renal): 72.6 µM
TGI (A498 renal): 94.3 µM
TGI (A549 NSCLC): > 100 µM
TGI (ACHN renal): > 100 µM
TGI (BT-549 breast): 99.6 µM
TGI (CAKI-1 renal): 82.1 µM
TGI (CCRF-CEM leukemia): 60.2 µM
TGI (COLO 205 colon): 36.3 µM
TGI (DU-145 prostate): > 100 µM
TGI (EKVX NSCLC): > 100 µM
TGI (HCC-2998 colon): 31.2 µM
TGI (HCT-116 colon): 37.2 µM
TGI (HCT-15 colon): > 100 µM
TGI (HL-60(TB) leukemia): > 100 µM
TGI (HOP-62 NSCLC): > 100 µM
TGI (HS 578T breast): 76.1 µM
TGI (HT29 colon): 37 µM
TGI (IGROV1 ovarian): 47.6 µM
TGI (K-562 leukemia): > 100 µM
TGI (KM12 colon): 29.6 µM
TGI (LOX IMVI melanoma): 34.1 µM
TGI (M14 melanoma): 39.2 µM
TGI (MALME-3M melanoma): 27.4 µM
TGI (MCF7 breast): 50.7 µM
TGI (MDA-MB-231 breast): 66.2 µM
TGI (MDA-MB-435): > 100 µM
TGI (MDA-N): > 100 µM
TGI (MOLT-4 leukemia): 41.2 µM
TGI (NCI-H226 lung): > 100 µM
TGI (NCI-H23 lung): 91.8 µM
TGI (NCI-H460 lung): > 100 µM
TGI (NCI-H522 lung): 33 µM
TGI (OVCAR-3 ovarian): 73.6 µM
TGI (OVCAR-4 ovarian): > 100 µM
TGI (OVCAR-5 ovarian): > 100 µM
TGI (OVCAR-8 ovarian): 18.3 µM
TGI (PC-3 prostate): > 100 µM
TGI (RPMI-8226 leukemia): 34.6 µM
TGI (SF-268 CNS): 79.8 µM
TGI (SF-295 CNS): > 100 µM
TGI (SF-539 CNS): 80.5 µM
TGI (SK-MEL-2 melanoma): > 100 µM
TGI (SK-MEL-28 melanoma): > 100 µM
TGI (SK-MEL-5 melanoma): > 100 µM
TGI (SK-OV-3 ovarian): > 100 µM
TGI (SN12C renal): 30.5 µM
TGI (SNB-19 CNS): > 100 µM
TGI (SNB-75 CNS): 90 µM
TGI (SR leukemia): 44.6 µM
TGI (SW-620 colon): 41.2 µM
TGI (T-47D breast): 53.7 µM
TGI (TK-10 renal): > 100 µM
TGI (U251 CNS): > 100 µM
TGI (UACC-257 melanoma): 44.7 µM
TGI (UACC-62 melanoma): 49.8 µM
